In brackets after ≈: the same amount, converted by molar mass.
Key:
anesthetized guinea pig = experiment: In vivo hypotensive activity, arterial blood pressure (ABP) in the guinea pig; conditions: intravenous, artificial ventilation
Experimental: (§1) B. In Vivo Bronchodilator and Hypotensive Activity.
(§2) The trachea of anesthetized guinea pig was cannulated and the ITP recorded on a polygraph under artificial ventilation. Arterial blood pressure (ABP; reflecting hypotensive activity) was also measured during the experiment. Either intravenous or intraduodenal routes of administration are used. […] The ratio of hypotensive ED20 /bronchodilating ED50 reflects an assessment of the separation of desirable bronchodilator activity from undesirable cardiovascular (hypotensive) effect in the compounds.

[1] = system: tracheal chains of guinea pig; experiment: In vitro bronchodilator activity, tracheal chains of guinea pig (Magnus method); format: cell-based; conditions: Cavia porcellus, relative to maximum response to 0.1 mcg./ml. isoproterenol, read-out: EC50 (concentration which produces a relaxation which is 50% of the maximum response to 0.1 mcg./ml. of isoproterenol)
Experimental: A. In Vitro Bronchodilator Activity.
Tracheal chains of guinea pig were prepared by the method of A. Akcasu, Arch. Int. Pharmcodyn. […] The response to each test compound was recorded by the Magnus method and expressed as a percentage of the maximum response obtained with 0.1 mcg./ml. of isoproterenol prior to each experiment.

[2] = system: trachea of anesthetized guinea pig; experiment: In vivo bronchodilator activity, decrease in intratracheal pressure (ITP) in the guinea pig; conditions: intravenous; for ED50: Cavia porcellus, anesthetized guinea pig, artificial ventilation, read-out: ITP ED50 (dose resulting in a 50% decrease in intratracheal pressure); for Ratio ABP/ITP (hypotensive ED20/bronchodilating ED50): separation of bronchodilator activity from hypotensive effect
Experimental: as §1, §2

SMILES | ABP ED20 (dose which reduces arterial blood pressure by 20%) (anesthetized guinea pig) [mg/kg] | EC50 [1] [µg/mL] | ED50 [2] [mg/kg] | Ratio ABP/ITP (hypotensive ED20/bronchodilating ED50) [2]
Cn1c(=O)c2[nH]cnc2n(C)c1=O [Aminophylline, reference compound] | 1.4 |  |  | 
CCCSc1nc(N)c2ncn(C3C=CCCC3)c2n1 (stereo not drawn) [Example 1, 9-(2-Cyclohexenyl)-2-n-propylthio-9H-adenine] | > 3 | 0.02 (≈ 0.0691 µM) | 0.31 | > 9.7
CCCSc1nc(N)c2ncn(C3CCCCC3)c2n1 [Example 2, 9-Cyclohexyl-2-n-propylthio-9H-adenine] | > 3 | 0.19 (≈ 0.652 µM) | 1.1 | > 2.7

— patent US4269839A, “Alkylthio-adenines used as bronchodilators” (Bristol-Myers Company, priority 1979, dated 1981)
